Data published in PubChem BioAssay AID330 (DTP/NCI, 2004).
Several values for one entry are separate records, joined by “and”; a condition that tells them apart may be missing. Equal entries are not always repeated. Inconclusive results and toxic doses are left out. How the source made its calls: active means survival T/C of 150% or more; inactive means T/C below 125% in these data. Square brackets hold non-standard residues; d marks the D form. Peptide text beside a SMILES is read from it. Hpg = N[CH](C(=O)O)c1ccc(O)cc1

Tested on: P388 leukemia ip, CD2F1 mice, survival T/C
Assay: NCI In Vivo Anticancer Drug Screen. Data for tumor model P388 Leukemia (intraperitoneal) in CD2F1 (CDF1) mice
Details: endpoint: median survival time, higher = longer survival
How it was run: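 Mice carrying the transplanted tumor received test compound or vehicle. Survival was recorded in each group, and the value is the treated-group measurement divided by that of the vehicle-treated control group.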

[1] = dose: 50.0 mg/kg/injection, schedule: Q04DX003 (ip), vehicle: saline with Tween-80
[2] = dose: 100.0 mg/kg/injection, schedule: Q04DX003 (ip), vehicle: saline with Tween-80
[3] = dose: 200.0 mg/kg/injection, schedule: Q04DX003 (ip), vehicle: saline with Tween-80
[4] = dose: 50.0 mg/kg/injection, schedule: Q01DX005 (ip), vehicle: Klucel (hydroxypropylcellulose) (HPC)
[5] = dose: 100.0 mg/kg/injection, schedule: Q01DX005 (ip), vehicle: Klucel (hydroxypropylcellulose) (HPC)
[6] = dose: 50.0 mg/kg/injection, schedule: Q01DX009 (ip), vehicle: Klucel (hydroxypropylcellulose) (HPC)
[7] = dose: 100.0 mg/kg/injection, schedule: Q01DX009 (ip), vehicle: Klucel (hydroxypropylcellulose) (HPC)
[8] = dose: 200.0 mg/kg/injection, schedule: Q01DX009 (ip), vehicle: Klucel (hydroxypropylcellulose) (HPC)
[9] = dose: 50.0 mg/kg/injection, schedule: Q01DX005 (ip), vehicle: saline with Tween-80
[10] = dose: 25.0 mg/kg/injection, schedule: Q04DX003 (ip), vehicle: saline with Tween-80

Measured: T/C

Cc1nnc(SCC2=C(C(=O)O)N3C(=O)C(NC(=O)Cn4cnnn4)C3SC2)s1 (stereo unspecified)
inactive: dose: 25.0 mg/kg/injection, schedule: Q01DX009 (ip), vehicle: saline 112 % of control | dose: 400.0 mg/kg/injection, schedule: Q01DX009 (ip), vehicle: saline 112 % of control

COC(=O)C(NC(N)=O)SC (stereo unspecified)
inactive: [1] 96 % of control | [2] 100 % of control | [3] 99 % of control

N#Cc1c(C(F)(F)F)cc(-c2cccs2)nc1SC(C(=O)Nc1cc(C(F)(F)F)cc(C(F)(F)F)c1)c1ccccc1 (stereo unspecified)
inactive: [4] 106 % of control | [5] 88 % of control | dose: 200.0 mg/kg/injection, schedule: Q01DX005 (ip), vehicle: Klucel (hydroxypropylcellulose) (HPC) 90 % of control

CCCCN(CCCC)C(=S)S
inactive: dose: 15.0 mg/kg/injection, schedule: Q01DX005 (ip), vehicle: Klucel (hydroxypropylcellulose) (HPC) 105 % of control | dose: 30.0 mg/kg/injection, schedule: Q01DX005 (ip), vehicle: Klucel (hydroxypropylcellulose) (HPC) 98 % of control | dose: 60.0 mg/kg/injection, schedule: Q01DX005 (ip), vehicle: Klucel (hydroxypropylcellulose) (HPC) 88 % of control

CN1c2ccccc2S(=O)(=O)n2c(CCc3ccccc3)nnc21
inactive: dose: 15.0 mg/kg/injection, schedule: Q01DX005 (ip), vehicle: saline with Tween-80 103 % of control | dose: 30.0 mg/kg/injection, schedule: Q01DX005 (ip), vehicle: saline with Tween-80 100 % of control | dose: 60.0 mg/kg/injection, schedule: Q01DX005 (ip), vehicle: saline with Tween-80 87 % of control and 97 % of control | dose: 240.0 mg/kg/injection, schedule: Q01DX005 (ip), vehicle: saline with Tween-80 90 % of control

CCCCCCCC(=O)NC1CC(O[C@H]2C[C@](O)(C(C)=O)Cc3c(O)c4c(c(O)c32)C(=O)c2c(OC)cccc2C4=O)OC(C)C1O (stereo partly specified)
inactive: dose: 0.75 mg/kg/injection, schedule: Q01DX009 (ip), vehicle: other 113 % of control | dose: 2.0 mg/kg/injection, schedule: Q04DX003 (ip), vehicle: other 107 % of control | dose: 4.0 mg/kg/injection, schedule: Q04DX003 (ip), vehicle: other 98 % of control | dose: 8.0 mg/kg/injection, schedule: Q04DX003 (ip), vehicle: other 102 % of control | dose: 16.0 mg/kg/injection, schedule: Q04DX003 (ip), vehicle: other 105 % of control | dose: 32.0 mg/kg/injection, schedule: Q04DX003 (ip), vehicle: other 116 % of control and 96 % of control | dose: 50.0 mg/kg/injection, schedule: Q04DX003 (ip), vehicle: other 118 % of control | dose: 64.0 mg/kg/injection, schedule: Q04DX003 (ip), vehicle: other 114 % of control | dose: 100.0 mg/kg/injection, schedule: Q04DX003 (ip), vehicle: other 105 % of control | dose: 128.0 mg/kg/injection, schedule: Q04DX003 (ip), vehicle: other 123 % of control | dose: 256.0 mg/kg/injection, schedule: Q04DX003 (ip), vehicle: other 123 % of control | dose: 400.0 mg/kg/injection, schedule: Q04DX003 (ip), vehicle: other 115 % of control

O=C(/C=C/c1cccc(Cl)c1)c1ccccc1
inactive: [6] 102 % of control | [7] 104 % of control | dose: 150.0 mg/kg/injection, schedule: Q01DX009 (ip), vehicle: Klucel (hydroxypropylcellulose) (HPC) 110 % of control | [8] 122 % of control

COc1ccc2c(c1)Oc1c(Cl)c3c(c(Cl)c1=N2)Oc1cc(OC)ccc1N=3
inactive: dose: 100.0 mg/kg/injection, schedule: Q01DX001 (ip), vehicle: saline with Tween-80 89 % of control | dose: 200.0 mg/kg/injection, schedule: Q01DX001 (ip), vehicle: saline with Tween-80 89 % of control | dose: 400.0 mg/kg/injection, schedule: Q01DX001 (ip), vehicle: saline with Tween-80 115 % of control

CC1OC(C)(C)OC1C(=O)O (stereo unspecified)
inactive: dose: 3.13 mg/kg/injection, schedule: Q01DX009 (ip), vehicle: Klucel (hydroxypropylcellulose) (HPC) 89 % of control | dose: 6.25 mg/kg/injection, schedule: Q01DX009 (ip), vehicle: Klucel (hydroxypropylcellulose) (HPC) 95 % of control | dose: 12.5 mg/kg/injection, schedule: Q01DX009 (ip), vehicle: Klucel (hydroxypropylcellulose) (HPC) 92 % of control | dose: 25.0 mg/kg/injection, schedule: Q01DX009 (ip), vehicle: Klucel (hydroxypropylcellulose) (HPC) 89 % of control | [6] 89 % of control

COc1ccccc1/C(=N/[N+](C)(C)C)C(C)C
inactive: dose: 6.25 mg/kg/injection, schedule: Q04DX002 (ip), vehicle: saline 100 % of control | dose: 12.5 mg/kg/injection, schedule: Q04DX002 (ip), vehicle: saline 100 % of control | dose: 25.0 mg/kg/injection, schedule: Q04DX002 (ip), vehicle: saline 93 % of control

C/C(=N\Nc1cc(C)nc2cc3c(cc12)OCO3)c1cn(C)n(-c2ccccc2)c1=O
inactive: dose: 3.12 mg/kg/injection, schedule: Q01DX005 (ip), vehicle: Klucel (hydroxypropylcellulose) (HPC) 97 % of control | dose: 6.25 mg/kg/injection, schedule: Q01DX005 (ip), vehicle: Klucel (hydroxypropylcellulose) (HPC) 97 % of control | dose: 12.5 mg/kg/injection, schedule: Q01DX005 (ip), vehicle: Klucel (hydroxypropylcellulose) (HPC) 103 % of control and 96 % of control | dose: 25.0 mg/kg/injection, schedule: Q01DX005 (ip), vehicle: Klucel (hydroxypropylcellulose) (HPC) 100 % of control | [4] 98 % of control and 110 % of control | [5] 109 % of control

CN(C)CC#N
inactive: dose: 5.0 mg/kg/injection, schedule: Q01DX009 (ip), vehicle: saline 104 % of control | dose: 10.0 mg/kg/injection, schedule: Q01DX009 (ip), vehicle: saline 109 % of control | dose: 20.0 mg/kg/injection, schedule: Q01DX009 (ip), vehicle: saline 109 % of control

N#C/C(=C/c1ccco1)c1ccc(Cl)cc1
inactive: [6] 90 % of control | [7] 95 % of control | [8] 92 % of control

CC(C)n1c2c(c3ccccc3c1=O)C(=O)c1ccccc1-2
inactive: dose: 12.5 mg/kg/injection, schedule: Q01DX005 (ip), vehicle: saline with Tween-80 95 % of control | dose: 25.0 mg/kg/injection, schedule: Q01DX005 (ip), vehicle: saline with Tween-80 86 % of control | [9] 86 % of control

CC(C)NC1CC2CCCCC2CC1c1ccccc1 (stereo unspecified)
inactive: dose: 100.0 mg/kg/injection, schedule: Q01DX001 (ip), vehicle: Klucel (hydroxypropylcellulose) (HPC) 93 % of control | dose: 200.0 mg/kg/injection, schedule: Q01DX001 (ip), vehicle: Klucel (hydroxypropylcellulose) (HPC) 93 % of control | dose: 400.0 mg/kg/injection, schedule: Q01DX001 (ip), vehicle: Klucel (hydroxypropylcellulose) (HPC) 88 % of control

COC(C#N)c1ccccc1 (stereo unspecified)
inactive: dose: 6.25 mg/kg/injection, schedule: Q04DX003 (ip), vehicle: saline with Tween-80 100 % of control | dose: 12.5 mg/kg/injection, schedule: Q04DX003 (ip), vehicle: saline with Tween-80 100 % of control | [10] 108 % of control and 115 % of control and 91 % of control | dose: 25.0 mg/kg/injection, schedule: Q04DX003 (ip), vehicle: saline 98 % of control

O=C(O)Cc1csc(=S)n1Cc1ccccc1
inactive: [9] 100 % of control | dose: 100.0 mg/kg/injection, schedule: Q01DX005 (ip), vehicle: saline with Tween-80 102 % of control | dose: 200.0 mg/kg/injection, schedule: Q01DX005 (ip), vehicle: saline with Tween-80 90 % of control

COc1ccc(C=NCCN=Cc2ccc(OC)cc2)cc1
inactive: [10] 100 % of control | [1] 109 % of control | [2] 108 % of control | [3] 110 % of control

C(=Nc1ccccc1)Nc1ccccc1.[Cu+2]
inactive: dose: 6.25 mg/kg/injection, schedule: Q01DX009 (ip), vehicle: saline with Tween-80 100 % of control | dose: 12.5 mg/kg/injection, schedule: Q01DX009 (ip), vehicle: saline with Tween-80 104 % of control and 108 % of control

CC(C)CC(N)C(=O)NC(C(=O)O)c1ccc(O)cc1 (stereo unspecified) (H-Leu-[Hpg]-OH; configuration not given here)
inactive: dose: 50.0 mg/kg/injection, schedule: Q01DX009 (ip), vehicle: saline with Tween-80 103 % of control | dose: 100.0 mg/kg/injection, schedule: Q01DX009 (ip), vehicle: saline with Tween-80 101 % of control | dose: 200.0 mg/kg/injection, schedule: Q01DX009 (ip), vehicle: saline with Tween-80 102 % of control
